These are literature values, as cited in PMC11528414 (Journal of the American Chemical Society, 2024).

Molecules are shown by their SMILES.

Usually IC50 stands for the concentration that inhibits the measured activity by half.

This series concerns PANC-1. The settings on record: read-out: Reported Anticancer Activity PANC-1 (IC50); reported values.

Turning to `C[N+]1=C2C=C(NCCc3ccc(O)cc3)C(=O)c3[nH]cc(c32)CC1` [makaluvamine J], the concentration for half-maximal inhibition (IC50) was 54 nM.
